Measurements from patent US8278337B2, “Substituted pyridines that are JNK inhibitors” (Merck Sharp & Dohme, priority 2006, dated 2012).
“And” between values parts separate entries of the source, which are not always exact repeats. Equal values may be shown once. Read-outs that look alike come from different tables or passages of the source.

What was measured:
Assay type in all cases: biochemical
JNK1 = JNK1 (Homo sapiens, UniProt P45983); assay: DELFIA kinase assay, JNK1
How it was run: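 Enzyme (2 nM JNK1) was preincubated 10 min with 0–100 μM compound in HEPES pH 7.3 with 5% DMSO, then reacted 30 min at room temperature with biotinylated GST-ATF2 (6 ug/mL). Final ATP was 7 uM for JNK1, 4 uM for JNK2 and 2 uM for JNK3. Phospho-ATF2 was detected by DELFIA europium fluorescence (ex 340, em 615 nm).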

JNK2 = JNK2 (Homo sapiens, UniProt P45984); assay: DELFIA kinase assay, JNK2
Sequence of JNK2 (P45984 whole entry, species assumed): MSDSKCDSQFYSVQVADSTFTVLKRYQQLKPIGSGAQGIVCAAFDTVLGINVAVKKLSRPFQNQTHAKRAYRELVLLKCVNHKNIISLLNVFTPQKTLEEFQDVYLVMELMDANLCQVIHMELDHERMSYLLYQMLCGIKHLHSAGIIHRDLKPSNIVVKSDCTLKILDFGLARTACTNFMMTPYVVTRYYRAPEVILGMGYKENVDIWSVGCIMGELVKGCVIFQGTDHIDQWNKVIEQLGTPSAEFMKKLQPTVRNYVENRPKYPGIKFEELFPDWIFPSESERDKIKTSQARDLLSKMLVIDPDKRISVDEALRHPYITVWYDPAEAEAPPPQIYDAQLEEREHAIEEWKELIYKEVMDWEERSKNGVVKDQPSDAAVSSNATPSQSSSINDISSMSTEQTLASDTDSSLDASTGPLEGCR
Description: (§1) Assay DELFIA (Dissociation Enhanced Lanthanide Fluorescence Immuno-Assay) Assay:
(§2) Before initiation of kinase reactions, compounds were pre-incubated with the enzyme for 10 minutes. Pre-incubation reactions contained 50 mM HEPES pH 7.3, 10 mM MgCl2, 1 mM DTT, 75 mM NaCl, 1 mM EDTA, 1 mM EGTA, 0.01% CHAPS, 2 nM JNK1, 6 ug/mL biotinylated GST-ATF2, 0.1 mg/ml BSA, 5% DMSO and 0-100 μM compound in a total volume of 40 μL. After a 10 minute room temperature pre-incubation, 10 μL of 35 μM ATP was added to start the reaction (final concentration of ATP=7 uM). Reactions were incubated at room temperature for 30 minutes. A small aliquot (10 uL) was taken and quenched by adding into 190 uL of DELFIA Assay buffer containing 100 mM EDTA. The amount of phosphate transferred to biotinylated GST-ATF2 was measured using the Dissociation Enhanced Lanthanide Fluorescence Immuno-assay (DELFIA) from Perkin Elmer according to manufacturers protocol. Briefly, biotinylated GST-ATF2 was captured on streptavidin coated plates for 1 hour, washed twice, then incubated for 1 hour with a 1:1000 dilution of rabbit-anti-phospho-ATF2 antibody and a 1:3500 dilution of Europium-labeled anti-rabbit secondary antibody. Free antibody was removed with six washes, Europium was dissociated from the antibody, and Europium fluorescence was measured using an excitation wavelength of 340 nm and an emission wavelength of 615 nm. JNK2 and JNK3 kinase reactions were carried out similarly, with the exception that the final concentration of ATP was 4 uM and 2 uM, respectively.

JNK3 = JNK3 (Homo sapiens, UniProt P53779); assay: DELFIA kinase assay, JNK3
Sequence of JNK3 (P53779 whole entry, species assumed): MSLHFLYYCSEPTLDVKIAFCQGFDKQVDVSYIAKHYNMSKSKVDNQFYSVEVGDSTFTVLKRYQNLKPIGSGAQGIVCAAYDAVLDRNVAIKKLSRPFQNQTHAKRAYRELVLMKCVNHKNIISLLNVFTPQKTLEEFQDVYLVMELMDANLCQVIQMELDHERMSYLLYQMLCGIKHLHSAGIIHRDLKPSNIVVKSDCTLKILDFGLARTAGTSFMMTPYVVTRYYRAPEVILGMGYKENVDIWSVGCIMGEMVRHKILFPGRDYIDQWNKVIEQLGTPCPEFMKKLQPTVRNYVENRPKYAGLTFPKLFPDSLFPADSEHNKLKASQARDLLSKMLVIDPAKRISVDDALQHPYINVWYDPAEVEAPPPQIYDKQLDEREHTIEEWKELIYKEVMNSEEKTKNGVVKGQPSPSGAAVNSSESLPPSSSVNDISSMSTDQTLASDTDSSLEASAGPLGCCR
Description: as §1, §2

[1] = DELFIA, biotinylated GST-ATF2 substrate, 10 minute pre-incubation, final ATP 7 uM
[2] = DELFIA, biotinylated GST-ATF2 substrate, final ATP 4 uM
[3] = DELFIA, biotinylated GST-ATF2 substrate, final ATP 2 uM
[4] = DELFIA assay, 2 nM JNK1, 7 uM ATP, 10 min pre-incubation
[5] = DELFIA assay, 2 nM JNK1, 7 uM ATP, 10 min pre-incubation, second table, read-out: JNK 1 IC50

Sequence of JNK1 (P45983 whole entry, species assumed): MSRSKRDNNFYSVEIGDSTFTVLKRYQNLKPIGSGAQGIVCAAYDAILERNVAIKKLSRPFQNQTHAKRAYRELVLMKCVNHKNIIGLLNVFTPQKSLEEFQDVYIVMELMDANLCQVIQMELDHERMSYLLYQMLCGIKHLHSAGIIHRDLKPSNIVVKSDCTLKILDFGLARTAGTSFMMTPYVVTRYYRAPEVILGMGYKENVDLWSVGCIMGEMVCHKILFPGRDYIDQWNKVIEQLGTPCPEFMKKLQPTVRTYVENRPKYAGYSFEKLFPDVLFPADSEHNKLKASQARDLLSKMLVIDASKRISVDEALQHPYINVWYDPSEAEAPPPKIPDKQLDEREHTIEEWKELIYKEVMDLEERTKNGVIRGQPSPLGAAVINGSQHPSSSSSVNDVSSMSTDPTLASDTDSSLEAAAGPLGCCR

Row | IC50 (JNK1; [1]) | IC50 (JNK2; [2]) [nM] | IC50 (JNK3; [3]) [nM] | IC50 (JNK1; [4]) [nM] | IC50 (JNK1; [5]) [nM] | IC50 (JNK2; DELFIA assay) [nM] | IC50 (JNK3; DELFIA assay) [nM] | Compound
1 | 4 to 19 nM and 4 to 97 nM and 11 nM | 8 | 9 |  |  |  |  | CC(C)NC(=O)c1cccc(C(=O)NCc2cnn(-c3ccc(S(=O)(=O)N(C)C)cc3)c2)n1 [Compound 152]
2 | 4 to 19 nM and 4 to 97 nM and 13 nM | 11 | 9 |  |  |  |  | CC(C)NC(=O)c1cccc(C(=O)NCc2cnn(-c3cccc(C(F)(F)F)c3)c2)n1 [Compound 140]
3 | 4 to 19 nM and 4 to 97 nM and 6 nM | 8 | 9 |  |  |  |  | CC(C)NC(=O)c1cccc(C(=O)NCc2cnn(-c3ccc4ncccc4c3)c2)n1 [Compound 142]
4 | 4 to 97 nM and 4 to 19 nM |  |  | 18 | 18 | 8 | 10 | CC(C)NC(=O)c1cccc(C(=O)NCc2cnn(-c3cnc4cccnc4c3)c2)n1 [Compound 222]
5 | 4 to 97 nM and 27 nM | 48 | 16 |  |  |  |  | CC(C)NC(=O)c1cccc(C(=O)NCc2cnn(-c3ccc(C#N)cc3)c2)n1 [Compound 135]
6 | 4 to 19 nM and 4 to 97 nM |  |  | 17 | 17 | 11 | 12 | Cc1nc2ccc(-n3cc(CNC(=O)c4cccc(C(=O)NC(C)C)n4)cn3)cc2n1C [Compound 233]
7 | 4 to 19 nM and 4 to 97 nM |  |  | 13 |  | 3 | 12 | CC(C)NC(=O)c1cccc(C(=O)NCc2cnn(-c3ccc(S(C)(=O)=O)cc3)c2)n1 [Compound 137]
8 | 4 to 19 nM and 4 to 97 nM |  |  | 15 |  | 20 | 20 | CC(C)NC(=O)c1cccc(C(=O)NCc2cnn(-c3cccc(C#N)c3)c2)n1 [Compound 134]
9 | > 1000 nM and 1030 to 10000 nM |  |  |  |  |  |  | CS(=O)(=O)c1ccc(CNC(=O)c2cccc(-n3ccc(C(F)(F)F)n3)n2)cc1 [Compound 315]
10 | > 1000 nM |  |  |  |  |  |  | CCOC(=O)N1CCC(NC(=O)c2cccc(C(=O)NCc3ccncc3)n2)CC1 [Compound 42]
11 | 102 to 959 nM |  |  |  |  |  |  | CC(C)NC(=O)c1cccc(C(=O)NCc2ccc(-c3ccc(C#N)cc3)nc2)n1 [Compound 179]
12 | > 1000 nM and 1030 to 10000 nM |  |  |  |  |  |  | CS(=O)(=O)c1ccc(CNC(=O)c2cccc(-c3cc4ccccc4[nH]3)n2)cc1 [Compound 339]
13 | 4 to 97 nM and 4 to 19 nM |  |  |  |  |  |  | Cc1cccc(-n2cc(CNC(=O)c3cccc(C(=O)NC(C)C)n3)cn2)c1 [Compound 129]
14 | > 1000 nM |  |  |  |  |  |  | CCNC(=O)c1cccc(C(=O)NC2CCN(C(=O)OCC)CC2)n1 [Compound 39]
